Source: ChEMBL document CHEMBL5532720, “A Potent Solution for Tumor Growth and Angiogenesis Suppression via an ELR+CXCL-CXCR1/2 Pathway Inhibitor” (ACS Med Chem Lett, 2024)
Converted amounts (≈) assume the structure as drawn. The source made the active and inactive calls. The rule behind the calls is not given here.

Tests used:
786-0 = test: Antiproliferative activity against human 786-0 cells incubated for 48 hrs by XTT assay; assay type: functional, cell-based; settings: 786-0, 48 h
A498 [1] = test: Inhibition of cell invasion in human A498 cells cultured as 3D spheroids at 5 uM measured after 7 days by light microscopic imaging analysis relative to control; assay type: functional; settings: A498, 168 h, time 7 day
[2] = Genotoxicity in Salmonella typhimurium TA1535 upto 100 uM in absence of S9 fraction by Ames test; assay type: toxicity; settings: salmonella enterica subsp. enterica serovar typhimurium, s9, 100 µM
[3] = Genotoxicity in Salmonella typhimurium TA1537 upto 100 uM in absence of S9 fraction by Ames test; assay type: toxicity; settings: salmonella enterica subsp. enterica serovar typhimurium, s9, 100 µM
[4] = Genotoxicity in Salmonella typhimurium TA1537 upto 100 uM in presence of S9 fraction by Ames test; assay type: toxicity, subcellular; settings: salmonella enterica subsp. enterica serovar typhimurium, s9, 100 µM
[5] = target: T1, Interleukin-8 receptors, CXCR1/CXCR2 (Homo sapiens) (UniProt P25025+P25024); test: Inhibition of CXCR1/2 pathway in human A498 cells assessed as reduction in ERK phosphorylation at 2.5 uM incubated for 24 to 48 hrs by immunoblot analysis; assay type: functional, cell-based; settings: time 24-48 hrs
[6] = target: T1, Interleukin-8 receptors, CXCR1/CXCR2 (Homo sapiens); test: Inhibition of CXCR1/2 pathway in human A498 cells assessed as reduction in AKT phosphorylation at 2.5 uM incubated for 24 to 48 hrs by immunoblot analysis; assay type: functional, cell-based; settings: time 24-48 hrs
A498 [7] = test: Inhibition of CXCL5 secretion in human A498 cells at 1 to 2.5 uM incubated for 48 hrs by ELISA; assay type: functional, cell-based; settings: dose 1-2.5 µM
A498 [8] = test: Inhibition of CXCL8 secretion in human A498 cells at 1 to 2.5 uM incubated for 48 hrs by ELISA; assay type: functional, cell-based; settings: dose 1-2.5 µM
A498 [9] = test: Downregulation of CXCL5 mRNA expression in human A498 cells at 1 to 2.5 uM incubated for 48 hrs by qPCR analysis; assay type: functional, cell-based; settings: dose 1-2.5 µM
A498 [10] = test: Downregulation of CXCL8 mRNA expression in human A498 cells at 1 to 2.5 uM incubated for 48 hrs by qPCR analysis; assay type: functional, cell-based; settings: dose 1-2.5 µM
[11] = target: Calcium/calmodulin-dependent protein kinase type II subunit beta (Homo sapiens) (UniProt Q13554); test: Inhibition of CAMK2B (unknown origin) at 10 uM in presence of ATP at Km concentration
[12] = target: Ephrin type-B receptor 4 (Homo sapiens) (UniProt P54760); test: Inhibition of EPHB4 (unknown origin) at 10 uM in presence of ATP at Km concentration
[13] = target: G protein-coupled receptor kinase 5 (Homo sapiens) (UniProt P34947); test: Inhibition of GRK5 (unknown origin) at 10 uM in presence of ATP at Km concentration
G protein-coupled receptor kinase 5 (Homo sapiens), sequence (P34947 whole entry, looked up): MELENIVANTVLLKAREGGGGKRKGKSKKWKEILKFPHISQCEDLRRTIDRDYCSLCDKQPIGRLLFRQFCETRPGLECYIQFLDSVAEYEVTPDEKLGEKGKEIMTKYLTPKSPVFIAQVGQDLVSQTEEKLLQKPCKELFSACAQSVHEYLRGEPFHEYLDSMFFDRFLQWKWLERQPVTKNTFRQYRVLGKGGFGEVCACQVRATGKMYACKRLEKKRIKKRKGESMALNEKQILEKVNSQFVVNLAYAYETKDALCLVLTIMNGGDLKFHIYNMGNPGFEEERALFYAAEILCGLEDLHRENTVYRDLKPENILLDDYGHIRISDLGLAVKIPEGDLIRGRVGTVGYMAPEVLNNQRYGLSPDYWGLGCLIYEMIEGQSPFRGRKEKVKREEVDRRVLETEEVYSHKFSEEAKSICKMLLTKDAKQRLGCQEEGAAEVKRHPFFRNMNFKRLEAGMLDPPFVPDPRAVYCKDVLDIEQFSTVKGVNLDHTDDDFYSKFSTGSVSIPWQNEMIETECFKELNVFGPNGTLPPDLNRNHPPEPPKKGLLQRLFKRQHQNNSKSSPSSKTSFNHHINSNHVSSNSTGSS

[14] = target: Mitogen-activated protein kinase kinase kinase 11 (Homo sapiens) (UniProt Q16584); test: Inhibition of MAP3K11 (unknown origin) at 10 uM in presence of ATP at Km concentration
[15] = target: Mitogen-activated protein kinase kinase kinase kinase 2 (Homo sapiens) (UniProt Q12851); test: Inhibition of MAP4K2 (unknown origin) at 10 uM in presence of ATP at Km concentration
[16] = target: Mitogen-activated protein kinase kinase kinase kinase 3 (Homo sapiens) (UniProt Q8IVH8); test: Inhibition of MAP4K3 (unknown origin) at 10 uM in presence of ATP at Km concentration
Mitogen-activated protein kinase kinase kinase kinase 3 (Homo sapiens), sequence (Q8IVH8 whole entry): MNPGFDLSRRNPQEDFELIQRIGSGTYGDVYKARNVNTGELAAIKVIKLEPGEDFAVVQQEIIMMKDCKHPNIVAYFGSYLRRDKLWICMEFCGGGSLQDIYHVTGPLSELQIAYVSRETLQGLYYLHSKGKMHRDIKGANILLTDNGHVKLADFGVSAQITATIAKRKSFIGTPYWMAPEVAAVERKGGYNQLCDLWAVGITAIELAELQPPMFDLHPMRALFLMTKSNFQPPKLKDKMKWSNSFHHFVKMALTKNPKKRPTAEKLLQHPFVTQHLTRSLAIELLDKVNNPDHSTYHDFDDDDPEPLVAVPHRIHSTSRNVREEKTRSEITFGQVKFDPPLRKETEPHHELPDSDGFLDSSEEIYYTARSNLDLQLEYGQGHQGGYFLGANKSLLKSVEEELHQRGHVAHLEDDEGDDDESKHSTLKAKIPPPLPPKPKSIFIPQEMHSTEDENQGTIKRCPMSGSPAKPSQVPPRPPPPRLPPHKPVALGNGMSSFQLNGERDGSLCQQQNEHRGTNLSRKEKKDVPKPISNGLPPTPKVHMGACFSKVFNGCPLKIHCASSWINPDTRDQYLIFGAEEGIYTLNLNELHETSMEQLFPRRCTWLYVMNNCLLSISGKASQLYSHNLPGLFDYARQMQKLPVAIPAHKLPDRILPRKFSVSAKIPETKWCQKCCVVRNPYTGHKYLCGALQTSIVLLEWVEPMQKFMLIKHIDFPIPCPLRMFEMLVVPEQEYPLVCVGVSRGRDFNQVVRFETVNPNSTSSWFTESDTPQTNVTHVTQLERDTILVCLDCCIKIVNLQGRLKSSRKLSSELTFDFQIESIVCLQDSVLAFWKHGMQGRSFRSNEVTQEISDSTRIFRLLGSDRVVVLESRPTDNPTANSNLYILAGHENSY

[17] = target: Mitogen-activated protein kinase kinase kinase kinase 4 (Homo sapiens) (UniProt O95819); test: Inhibition of MAP4K4 (unknown origin) at 10 uM in presence of ATP at Km concentration
[18] = target: Mitogen-activated protein kinase kinase kinase kinase 5 (Homo sapiens) (UniProt Q9Y4K4); test: Inhibition of MAP4K5 (unknown origin) at 10 uM in presence of ATP at Km concentration
Mitogen-activated protein kinase kinase kinase kinase 5 (Homo sapiens), sequence (Q9Y4K4 whole entry, looked up): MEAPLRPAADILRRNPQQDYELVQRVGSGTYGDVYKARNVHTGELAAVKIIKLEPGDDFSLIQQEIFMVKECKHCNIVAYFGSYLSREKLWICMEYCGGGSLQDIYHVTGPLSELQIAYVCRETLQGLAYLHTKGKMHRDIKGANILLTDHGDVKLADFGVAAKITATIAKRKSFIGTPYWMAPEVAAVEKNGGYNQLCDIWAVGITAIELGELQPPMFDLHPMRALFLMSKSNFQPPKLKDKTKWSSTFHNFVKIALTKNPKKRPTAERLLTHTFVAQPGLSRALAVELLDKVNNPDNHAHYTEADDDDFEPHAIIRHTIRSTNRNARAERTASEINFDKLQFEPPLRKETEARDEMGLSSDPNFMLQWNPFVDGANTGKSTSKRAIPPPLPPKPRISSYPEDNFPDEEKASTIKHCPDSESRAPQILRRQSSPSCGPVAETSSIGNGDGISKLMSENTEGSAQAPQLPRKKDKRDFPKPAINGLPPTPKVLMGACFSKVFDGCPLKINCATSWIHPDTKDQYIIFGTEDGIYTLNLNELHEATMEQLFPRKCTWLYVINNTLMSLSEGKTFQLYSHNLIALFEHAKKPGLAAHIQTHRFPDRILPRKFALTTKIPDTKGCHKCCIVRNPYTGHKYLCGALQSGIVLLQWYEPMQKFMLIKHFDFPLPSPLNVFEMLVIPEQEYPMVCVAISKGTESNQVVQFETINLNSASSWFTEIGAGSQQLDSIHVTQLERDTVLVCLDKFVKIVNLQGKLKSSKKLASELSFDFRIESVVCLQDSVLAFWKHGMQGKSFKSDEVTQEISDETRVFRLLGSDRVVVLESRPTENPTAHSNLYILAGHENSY

[19] = target: Inactive tyrosine-protein kinase PEAK1 (Homo sapiens) (UniProt Q9H792); test: Inhibition of PEAK1 (unknown origin) at 10 uM in presence of ATP at Km concentration
[20] = target: Serine/threonine-protein kinase D2 (Homo sapiens) (UniProt Q9BZL6); test: Inhibition of PRKD2 (unknown origin) at 10 uM in presence of ATP at Km concentration
Serine/threonine-protein kinase D2 (Homo sapiens), sequence (Q9BZL6 whole entry): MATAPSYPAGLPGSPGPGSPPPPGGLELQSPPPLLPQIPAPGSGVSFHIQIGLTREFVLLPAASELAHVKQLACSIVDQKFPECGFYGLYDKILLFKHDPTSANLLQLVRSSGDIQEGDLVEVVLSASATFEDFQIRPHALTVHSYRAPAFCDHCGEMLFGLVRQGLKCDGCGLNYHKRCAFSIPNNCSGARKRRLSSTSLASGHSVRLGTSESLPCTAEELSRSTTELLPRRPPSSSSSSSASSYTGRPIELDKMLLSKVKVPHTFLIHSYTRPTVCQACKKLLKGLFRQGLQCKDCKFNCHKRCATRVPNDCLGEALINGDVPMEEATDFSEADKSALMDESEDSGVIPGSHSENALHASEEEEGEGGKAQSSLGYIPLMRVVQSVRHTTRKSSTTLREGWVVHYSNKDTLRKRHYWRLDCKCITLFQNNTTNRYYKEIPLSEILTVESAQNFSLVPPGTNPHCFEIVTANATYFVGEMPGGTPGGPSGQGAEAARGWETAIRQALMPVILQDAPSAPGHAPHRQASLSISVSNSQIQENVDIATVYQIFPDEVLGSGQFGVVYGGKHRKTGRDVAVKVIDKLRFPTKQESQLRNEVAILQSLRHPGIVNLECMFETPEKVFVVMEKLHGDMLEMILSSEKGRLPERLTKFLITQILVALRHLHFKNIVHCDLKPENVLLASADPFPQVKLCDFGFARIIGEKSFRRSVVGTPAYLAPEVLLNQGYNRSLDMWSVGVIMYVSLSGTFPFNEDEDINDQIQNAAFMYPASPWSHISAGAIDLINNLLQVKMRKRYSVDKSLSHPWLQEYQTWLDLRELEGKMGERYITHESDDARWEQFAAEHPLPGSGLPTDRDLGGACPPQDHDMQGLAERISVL

[21] = target: Serine/threonine-protein kinase SIK3 (Homo sapiens) (UniProt Q9Y2K2); test: Inhibition of SIK3 (unknown origin) at 10 uM in presence of ATP at Km concentration
Serine/threonine-protein kinase SIK3 (Homo sapiens), sequence (Q9Y2K2 whole entry, looked up): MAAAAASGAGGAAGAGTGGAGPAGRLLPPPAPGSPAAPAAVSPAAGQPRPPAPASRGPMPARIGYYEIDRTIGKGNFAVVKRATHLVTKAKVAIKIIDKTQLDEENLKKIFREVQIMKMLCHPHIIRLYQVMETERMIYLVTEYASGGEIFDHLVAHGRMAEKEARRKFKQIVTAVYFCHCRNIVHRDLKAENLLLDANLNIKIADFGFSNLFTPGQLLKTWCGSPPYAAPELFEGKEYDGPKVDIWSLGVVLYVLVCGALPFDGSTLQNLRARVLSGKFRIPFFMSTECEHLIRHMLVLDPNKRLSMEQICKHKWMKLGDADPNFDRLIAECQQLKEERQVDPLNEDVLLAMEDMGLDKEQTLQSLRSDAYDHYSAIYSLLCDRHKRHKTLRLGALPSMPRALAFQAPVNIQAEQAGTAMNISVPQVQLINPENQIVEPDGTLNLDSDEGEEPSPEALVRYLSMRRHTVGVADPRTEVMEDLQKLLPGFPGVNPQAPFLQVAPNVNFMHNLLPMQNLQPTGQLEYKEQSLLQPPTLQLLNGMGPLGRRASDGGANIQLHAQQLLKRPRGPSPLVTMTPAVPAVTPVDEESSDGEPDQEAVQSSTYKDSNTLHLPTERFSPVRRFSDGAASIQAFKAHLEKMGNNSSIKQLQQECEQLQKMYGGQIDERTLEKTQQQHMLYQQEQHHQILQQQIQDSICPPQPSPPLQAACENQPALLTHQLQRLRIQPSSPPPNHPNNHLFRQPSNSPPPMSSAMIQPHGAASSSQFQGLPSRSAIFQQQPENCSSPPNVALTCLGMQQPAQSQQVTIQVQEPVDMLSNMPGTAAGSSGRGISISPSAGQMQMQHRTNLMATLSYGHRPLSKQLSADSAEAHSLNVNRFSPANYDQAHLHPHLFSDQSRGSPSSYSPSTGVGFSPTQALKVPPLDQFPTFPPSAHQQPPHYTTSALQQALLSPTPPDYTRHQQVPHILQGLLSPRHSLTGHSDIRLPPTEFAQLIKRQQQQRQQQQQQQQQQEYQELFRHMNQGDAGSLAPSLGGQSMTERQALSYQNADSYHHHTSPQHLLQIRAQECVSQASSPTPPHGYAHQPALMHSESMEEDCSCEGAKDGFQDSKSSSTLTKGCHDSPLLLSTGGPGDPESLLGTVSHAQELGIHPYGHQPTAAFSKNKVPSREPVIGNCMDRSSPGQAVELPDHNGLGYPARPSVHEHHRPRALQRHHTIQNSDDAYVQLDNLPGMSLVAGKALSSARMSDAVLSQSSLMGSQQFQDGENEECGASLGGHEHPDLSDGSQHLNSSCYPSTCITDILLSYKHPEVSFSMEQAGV

[22] = target: TGF-beta receptor type-2 (Homo sapiens) (UniProt P37173); test: Inhibition of TGFBR2 (unknown origin) at 10 uM in presence of ATP at Km concentration
TGF-beta receptor type-2 (Homo sapiens), sequence (P37173 whole entry): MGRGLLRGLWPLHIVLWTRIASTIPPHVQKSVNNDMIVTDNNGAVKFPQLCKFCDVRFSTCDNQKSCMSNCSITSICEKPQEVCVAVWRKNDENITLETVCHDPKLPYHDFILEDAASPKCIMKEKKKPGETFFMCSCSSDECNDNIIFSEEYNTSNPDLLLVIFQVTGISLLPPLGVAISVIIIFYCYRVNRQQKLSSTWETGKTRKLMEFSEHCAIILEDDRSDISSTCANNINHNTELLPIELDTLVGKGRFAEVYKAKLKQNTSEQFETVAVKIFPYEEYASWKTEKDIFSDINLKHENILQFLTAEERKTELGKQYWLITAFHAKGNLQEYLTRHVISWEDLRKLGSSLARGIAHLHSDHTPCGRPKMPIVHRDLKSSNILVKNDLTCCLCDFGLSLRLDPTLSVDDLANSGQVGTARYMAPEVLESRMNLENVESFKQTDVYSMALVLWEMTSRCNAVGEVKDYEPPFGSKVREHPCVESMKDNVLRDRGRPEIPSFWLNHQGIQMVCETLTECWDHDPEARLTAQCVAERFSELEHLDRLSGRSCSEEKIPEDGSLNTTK

[23] = tested on: Cisplatin and radiotherapy resistant CAL33RR; test: Inhibition of cell invasion in human Cisplatin and radiotherapy resistant CAL33RR cells cultured as 3D spheroid at 5 uM measured after 7 days by light microscopic imaging analysis; assay type: functional, cell-based; settings: time 7.0 day
[24] = tested on: Cisplatin and radiotherapy resistant CAL33RR; test: Inhibition of CXCL8-dependent cell migration in human Cisplatin and radiotherapy resistant CAL33RR cells at 0.5 uM incubated for 24 hrs by Boyden chamber based crystal violet staining analysis; assay type: functional
A498 [25] = test: Antimetastatic activity against human A498 cells labeled with vybrant DiD cell-labeling solution xenografted in zebrafish embryo assessed as inhibition of neovascularization by measuring decrease in fluorescence intensity of GFP labeled blood vessel at 1 uM incubated for 72 hrs by fluorescence microscopic imaging analysis; assay type: functional, cell-based
A498 [26] = test: Antimetastatic activity against human A498 cells labeled with vybrant DiD cell-labeling solution xenografted in zebrafish embryo assessed as fold reduction in metastasis area at 1 uM pre-infected with cells for 24 hrs followed by compound addition and measured after 48 hrs by fluorescence microscopic imaging analysis; assay type: functional
[27] = Aqueous solubility of compound in water; assay type: physicochemical
[28] = Aqueous solubility of compound in SGF at pH 2; assay type: ADME
[29] = Stability in mouse plasma assessed as compound remaining measured after 120 mins; assay type: ADME, cell-free; settings: read-out: Stability
[30] = Stability in human plasma assessed as compound remaining measured after 120 mins; assay type: ADME, cell-free; settings: read-out: Stability
[31] = Stability in mouse microsomes assessed as intrinsic clearance; assay type: ADME, Microsome
[32] = Stability in human microsomes assessed as intrinsic clearance; assay type: ADME, Microsome
[33] = Clearance in NOD SCID mouse at 1 mg/kg, iv; assay type: ADME, organism-based; settings: in vivo
[34] = Cmax in NOD SCID mouse at 100 mg/kg, po; assay type: ADME, organism-based; settings: in vivo
[35] = Tmax in NOD SCID mouse at 50 mg/kg, po; assay type: ADME, organism-based; settings: in vivo
[36] = Tmax in NOD SCID mouse at 100 mg/kg, po; assay type: ADME, organism-based; settings: in vivo
[37] = Half-life in NOD SCID mouse at 100 mg/kg, po; assay type: ADME, organism-based; settings: in vivo
[38] = Oral bioavailability in NOD SCID mouse at 50 mg/kg; assay type: ADME, organism-based; settings: in vivo
[39] = Oral bioavailability in NOD SCID mouse at 200 mg/kg; assay type: ADME, organism-based; settings: in vivo
[40] = Toxicity in athymic nude mouse xenografted with human 786-0 cells assessed as effect on behavior at 100 mg/kg, po administered twice daily via gavage for 28 days; assay type: organism-based; settings: in vivo, 672 h, time 28 day

SMILES: O=C(Nc1cc(Cl)cc(Cl)c1)Nc1nc2ccc([N+](=O)[O-])cc2s1
- IC50 (786-0): 2.5 µM
- inhibition at 5 µM (A498 [1]): > 75%
- Activity [2]: Non-Toxic
- Activity [3]: Non-Toxic
- Activity [4]: Non-Toxic
- inhibition [5]: Active
- inhibition [6]: Active
- inhibition (A498 [7]): Active
- inhibition (A498 [8]): Active
- Activity (A498 [9]): Active
- Activity (A498 [10]): Active
- inhibition [11]: inactive
- inhibition [12]: inactive
- inhibition [13]: inactive
- inhibition [14]: inactive
- inhibition [15]: inactive
- inhibition [16]: inactive
- inhibition [17]: inactive
- inhibition [18]: inactive
- inhibition [19]: inactive
- inhibition [20]: inactive
- inhibition [21]: inactive
- inhibition [22]: inactive
- inhibition [23]: Active
- inhibition [24]: Active
- Activity (A498 [25]): Active
- fold change (FC) (A498 [26]): ~4
- solubility [27]: 1.2 µM (≈ 0.46 µg/mL)
- solubility [28]: 3.4 µM (≈ 1.3 µg/mL)
- remaining at 2 h [29]: 101%
- remaining at 2 h [30]: 85%
- microsomal CLint [31]: < 116 µL/min/mg
- microsomal CLint [32]: < 116 µL/min/mg
- clearance [33]: 2.36 L/h/kg
- Cmax [34]: 2.8 µM
- Tmax [35]: 1.5 h
- Tmax [36]: 1.5 h
- half-life [37]: 2.2 h
- bioavailability [38]: 39%
- bioavailability [39]: 22%
- Activity [40]: Non-Toxic
